Measurements from article PMC6027146, “Synthesis and Structure-Activity Relationships of (−)-cis-N-Normetazocine-Based LP1 Derivatives” (Pharmaceuticals, 2018).
Entries after “also recorded” stand apart in the source; their conditions may differ. Like-named read-outs stand apart in the source and are kept apart here.

Legend:
rat-MOR = target: T1, rat-MOR (Rattus norvegicus, UniProt P33535); experiment: Radioligand competition binding, [3H]-DPN, HEK293 membranes, MOR
T1 construct: expressed in transfected cells
Method: (§1) All synthesized compounds were tested in vitro by radioligand competition binding using [^3H]-diprenorphine ([^3H]-DPN) to measure the affinity for opioid receptor subtypes in membranes from HEK293 cells stably expressing either MOR, DOR, or KOR, as previously described.
(§2) Confluent monolayers of HEK293 (human embryonic kidney 293) cells stably expressing rat-MOR, rat-DOR, or human-KOR were harvested, collected by centrifugation at 1500 rpm for 5 min, and washed once with phosphate-buffered saline (PBS) at pH 7.5. Membranes from cell pellets were carried out as described by Georgoussi and Zioudrou (1993) and Papakonstantinou et al. (2015). Briefly, cell pellets were resuspended in ice-cold membrane buffer (10 mM Tris-HCl, pH 7.5 and 0.1 mM EDTA), homogenized, and centrifuged at 2,000 g for 3 min at 4 °C. Supernatants were further centrifuged at 45,000 rpm for 30 min at 4 °C. The membrane pellet was resuspended in ice-cold membrane buffer at a protein concentration of approximately 1 mg/mL and stored in aliquots at −70 °C. Protein concentration was determined according to Bradford assay.
(§3) In the experiments designed to define compound affinity and selectivity for MOR, DOR, and KOR, membranes expressing each of these opioid receptors ([…]) were incubated at 30 °C for 45 min in buffer containing 50 mM Tris-HCl, pH 7.5, 100 mM NaCl, and 10 mM MgCl2 as described by Georgoussi et al. […] The ability of compounds 10–16 to displace [^3H]-DPN (3.75 nM) binding to the opioid receptors was assessed as described by Morou And Georgoussi (2005). Non-specific binding was measured in the presence of […] Naloxone. The reaction was stopped by rapid filtration and three washes in ice-cold 50 mM Tris-HCl, pH 7.4, through GF/C filters (Whatman, Maidstone, UK) using an automated cell harvester (Brandel Inc., Gaithersburg, MD, USA). The radioactivity was measured by liquid scintillation counting (Liquid Scintillation Analyzer, Packard).
(§4) Analysis of the binding data was performed using the Origin 7.5 software (OriginLab Corporation, Northampton, MA, USA). In calcium mobilization experiments, data were analyzed by non-linear curve fitting equation, using GraphPad 5.0 software. […] Ligand efficacy was expressed as intrinsic activity (α), calculated as the ratio between the Emax of the ligand and that of the respective standards. Calcium mobilization data were expressed as FIU (fluorescence intensity units) in percent, over the baseline. Agonist potencies are given as pEC50 (the negative logarithm to base 10 of the molar concentration of an agonist that produces 50% of the maximal possible effect, Emax). Concentration response curves to agonists were fitted with the following equation: Effect = baseline + (Emax − baseline)/(1+10^(LogEC50 − X) ∗ HillSlope) where X is the agonist concentration.

rat-DOR = target: T2, rat-DOR (Rattus norvegicus, UniProt P33533); experiment: Radioligand competition binding, [3H]-DPN, HEK293 membranes, DOR
T2 construct: expressed in transfected cells
Method: as §1, §2, §3, §4

recombinant human MOR = target: T3, recombinant human MOR (Homo sapiens, UniProt P35372); experiment: Calcium mobilization assay, CHO-MOR cells expressing Gαqi5; type: cell-based; conditions: for functional profile at MOR: calcium mobilization; for intrinsic activity (α) at MOR: ratio of Emax of ligand to that of the standard; for MOR pEC50 (CL95%): agonist mode, Inactive = inactive at 10 μM, crc incomplete = incomplete concentration response curve at 10 μM
T3 construct: expressed in transfected cells; gift of Dr. Larry Toll (SRI International); infected with a retrovirus for Gαqi5

recombinant human DOR = target: T4, recombinant human DOR (Homo sapiens, UniProt P41143); experiment: Calcium mobilization assay, CHO-DOR cells expressing GαqG66Di5; type: cell-based; conditions: for DOR pEC50 (CL95%): agonist mode, crc incomplete = incomplete concentration response curve at 10 μM; for DOR pEC50 (CL95%) / DOR pKB (CL95%): Inactive = inactive at 10 μM; for DOR pKB (CL95%): antagonist mode, DPDPE as agonist; for functional profile at DOR: calcium mobilization
T4 construct: expressed in transfected cells; supplied by Dr. Eva Varga (University of Arizona); infected with a retrovirus for GαqG66Di5
Method: (§5) The pharmacological characterization of LP1 derivatives 2 and 10–16 was performed by calcium mobilization assay (Table 2). This procedure was preliminarily validated through a series of experiments where the effects of DPDPE, dermorphin, and dynorphin A were assessed in CHO cells expressing the human recombinant opioid receptors and Gαqi5 or GαqG66Di5 chimeric proteins.
(§6) Chinese hamster ovary (CHO) cells expressing the recombinant human MOR and KOR (CHO^MOR and CHO^KOR) were kindly provided by Dr. Larry Toll (SRI International, Menlo Park, CA, USA), and CHO cells expressing the recombinant human DOR (CHO^DOR) were supplied by Dr. Eva Varga (Department of Medical Pharmacology, The University of Arizona, Tucson, AZ, USA). CHO cells lines permanently coexpressing the opioid receptors and the C-terminally modified Gαqi5 were prepared by infecting the CHO lines described above with a recombinant retrovirus expressing the chimeric α subunit and the hygromycin resistance gene. Similarly, CHO cells lines permanently coexpressing DOR and the C-terminally modified GαqG66Di5 were prepared by infecting the CHO lines described above with a recombinant retrovirus expressing the chimeric α subunit and the hygromycin resistance gene. Polyclonal cell lines were generated using the pantropic retroviral expression system form BD-Clontech, as described previously. Stable lines were selected under hygromycin B (100 μg/mL) and geneticin (600 μg/mL) for 2–3 weeks after the infection.
(§7) CHO cells, expressing human opioid receptors and the Gαqi5 protein, and CHODOR, expressing the GαqG66Di5 protein, were maintained in culture medium consisting of Dulbecco minimum essential medium (DMEM) and Ham F-12 (1:1) (50/50) supplemented with 10% fetal calf serum (FCS), L-glutamine (2 mM), geneticin (200 μg/mL; G418), hygromycin B (100 μg/mL) at 37 °C in 5% CO2 humidified air. When confluence was reached (3–4 days), cells were subcultured as required using trypsin/EDTA, and used for experimentation. The different cell lines were seeded at a density of […] into black 96-well, clear-bottomed plates. After 24 h incubation, the cells were loaded with medium supplemented with 2.5 mM probenecid, 3 μM of the calcium sensitive fluorescent dye Fluo-4 AM, and 0.01% pluronic acid, for 30 min at 37 °C. Afterwards, the loading solution was aspirated and 100 μL/well of assay buffer—HBSS supplemented with 20 mM HEPES, 2.5 mM probenecid and 500 μM Brilliant Black (Aldrich, St. Louis, MO, USA)—was added. Serial dilutions of ligands for experimental use were made in HBSS/HEPES (20 mM) buffer (containing 0.005% BSA fraction V). After placing both plates (cell culture and compound plate) into the FlexStation II (Molecular Device, Union City, San Jose, CA 94587, USA), fluorescence changes were measured at room temperature. Online additions were carried out in a volume of 50 μL/well. Antagonists were incubated 15 min before the addition of the agonist. Maximum change in fluorescence, expressed in percent of baseline fluorescence, was used to determine agonist response.
as §4, with “concentration. […]” for “concentration.”

human-KOR [1] = target: T5, human-KOR (Homo sapiens, UniProt P41145); experiment: Radioligand competition binding, [3H]-DPN, HEK293 membranes, KOR; design: expressed in transfected cells
Method: as §1, §2, §3, §4

human-KOR [2] = target: T5, human-KOR; experiment: Calcium mobilization assay, CHO-KOR cells expressing Gαqi5; type: cell-based; design: expressed in transfected cells; gift of Dr. Larry Toll (SRI International); infected with a retrovirus for Gαqi5; conditions: for KOR pEC50 (CL95%): agonist mode, crc incomplete = incomplete concentration response curve at 10 μM; for KOR pEC50 (CL95%) / KOR pKB (CL95%): Inactive = inactive at 10 μM; for KOR pKB (CL95%): antagonist mode, dynorphin A as agonist; for functional profile at KOR: calcium mobilization
Method: as §5, §6, §7
as §4, with “concentration. […]” for “concentration.”

SMILES	Ki (rat-MOR) [µM]	Ki (rat-DOR) [nM]	EC50 (recombinant human MOR) [nM]	functional profile at MOR (recombinant human MOR)	intrinsic activity (α) at MOR (recombinant human MOR)	DOR pEC50 (CL95%) (recombinant human DOR)	DOR pKB (CL95%) (recombinant human DOR)	Ki (human-KOR [1]) [µM]	KOR pEC50 (CL95%) (human-KOR [2])	Kb (recombinant human DOR) [nM]	functional profile at DOR (recombinant human DOR)	Kb (human-KOR [2]) [nM]	KOR pKB (CL95%) (human-KOR [2])	functional profile at KOR (human-KOR [2])	Kb (recombinant human MOR) [nM]	MOR pEC50 (CL95%) (recombinant human MOR)	melting point	also measured
C[C@H]1[C@H]2Cc3ccc(O)cc3[C@]1(C)CCN2CCC(=O)Nc1ccc(F)cc1 [Compound 10, N-(4-Fluorophenyl)-3-[(2R,6R,11R)-8-hydroxy-6,11-dimethyl-1,4,5,6-tetrahydro-2,6-methano-3-benzazocin-3(2H)-yl]propanamide]	0.28 ± 0.013	920 ± 120	2140	MOR partial agonists	0.30 ± 0.015	able to stimulate calcium mobilization, but only at the higher concentration tested; also recorded: crc incomplete	Inactive	4.8 ± 0.95	crc incomplete									
Cc1ccc(NC(=O)CCN2CC[C@@]3(C)c4cc(O)ccc4C[C@@H]2[C@@H]3C)cc1 [Compound 11, 3-[(2R,6R,11R)-8-Hydroxy-6,11-dimethyl-1,4,5,6-tetrahydro-2,6-methano-3-benzazocin-3(2H)-yl]-N-(4-methylphenyl)propanamide]	0.24 ± 0.015	410 ± 23	1410	MOR partial agonists	0.23 ± 0.011	Inactive		1.01 ± 0.11	Inactive	1480	DOR/KOR antagonists	1410	able to inhibit the stimulatory effects induced by dynorphin A	DOR/KOR antagonists				
C[C@H]1[C@H]2Cc3ccc(O)cc3[C@]1(C)CCN2CCC(=O)Nc1ccc(C#N)cc1 [Compound 12, N-(4-Cyanophenyl)-3-[(2R,6R,11R)-8-hydroxy-6,11-dimethyl-1,4,5,6-tetrahydro-2,6-methano-3-benzazocin-3(2H)-yl]propanamide]	0.21 ± 0.024	380 ± 34	1020	MOR partial agonists	0.34 ± 0.017	Inactive		0.85 ± 0.18	Inactive	1510	DOR/KOR antagonists	1260	able to inhibit the stimulatory effects induced by dynorphin A	DOR/KOR antagonists				
COc1ccc(NC(=O)CCN2CC[C@@]3(C)c4cc(O)ccc4C[C@@H]2[C@@H]3C)cc1 [Compound 13, 3-[(2R,6R,11R)-8-Hydroxy-6,11-dimethyl-1,4,5,6-tetrahydro-2,6-methano-3-benzazocin-3(2H)-yl]-N-(4-methoxyphenyl)propanamide]	0.18 ± 0.011	1100 ± 110				Inactive	Inactive	4 ± 0.18	Inactive				Inactive		501	Inactive	172.9 to 173.5 °C	
C[C@H]1[C@H]2Cc3ccc(O)cc3[C@]1(C)CCN2CCC(=O)N1CCCc2ccccc21 [Compound 15, 1-(3,4-Dihydroquinolin-1(2H)-yl)-3-[(2R,6R,11R)-8-hydroxy-6,11-dimethyl-1,4,5,6-tetrahydro-2,6-methano-3-benzazocin-3(2H)-yl]-propan-1-one]						Inactive	Inactive							partial agonist of KOR		Inactive	92.2 °C (dec.)	Ki (rat-MOR; [3H]-DPN displacement, means ± SEM of three experiments in duplicate, read-out: Ki (μM) ± SEM MOR): 0.36 ± 0.023 µM; Ki (human-KOR [1]; [3H]-DPN displacement, means ± SEM of three experiments in duplicate, read-out: Ki (μM) ± SEM KOR): 0.2 ± 0.02 µM; intrinsic activity (α) at KOR (human-KOR [2]; ratio of Emax of ligand to that of the standard): 0.32 ± 0.016; EC50 (human-KOR [2]; read-out: KOR pEC50 (CL95%) (converted)): 257 nM
C[C@H]1[C@H]2Cc3ccc(O)cc3[C@]1(C)CCN2CCC(=O)N(c1ccccc1)c1ccccc1 [Compound 16, 3-[(2R,6R,11R)-8-Hydroxy-6,11-dimethyl-1,4,5,6-tetrahydro-2,6-methano-3-benzazocin-3(2H)-yl]-N,N-diphenylpropanamide]	0.17 ± 0.013			MOR/KOR antagonist		Inactive	Inactive	0.2 ± 0.03	Inactive			776	able to inhibit the stimulatory effects induced by dynorphin A	MOR/KOR antagonist	759	Inactive	173.5 °C (dec.)	
